Measured values taken from paper PMC7997453 (Pharmaceuticals, 2021).
Like-named read-outs stand apart in the source and are kept apart here.

Key:
CYP3A4 [1] = molecular target: T1, CYP3A4 (Homo sapiens, UniProt P08684); test: Time-dependent inhibition (TDI) assay, testosterone-6β-hydroxylation, CYP3A5*3/*3 HLM; assay type: biochemical
Experimental: (§1) Testosterone-6β-hydroxylation was used to measure the activity of CYP3A4 and CYP3A5. […] With the corresponding double-reciprocal plot, the derived kinetic constants from the inactivation experiments were estimated.
(§2) Two-step incubation was performed to evaluate the TDI assay. […] After pre-incubation for 3 min at 37 °C in a shaking water bath, the enzymatic reaction was started upon adding NADPH (1 mM) with various pre-reaction time (0, 5, 10, 20, 30 min). For TDI on CYP3A5, NADPH (1 mM) was added to the incubation which contained CYP3A5*1/*3 HLM (0.5 mg/mL) and CYP3cide (1.2 μM) after being pre-warmed for 3 min. […] Next step, an aliquot (20 μL) of the primary pre-reaction mixture was transferred to 180 μL of the secondary incubation system which consisted of PBS (0.1 M), testosterone (200 μM) and NADPH (1 mM). The secondary reaction was incubated at 37 °C for 10 min and terminated by adding 400 μL ice-cold acetonitrile containing prednisolone as the internal standard (0.3150 μM for CYP3A5*3/*3 HLM incubation and 0.07875 μM for CYP3A5*1/*3 HLM incubation). […] The observed inactivation rate of the affected enzyme (kobs) was the negative slope of the linear regression. kinact and KI were calculated using Equation (1) by the double-reciprocal plot. I represents the concentration of the inhibitor. (1) kobs=kinact×I/[…]

[2] = design: method as in https://pubchem.ncbi.nlm.nih.gov/; details: ref https://pubchem.ncbi.nlm.nih.gov/; cited from earlier work
[3] = intrinsic clearance in human liver microsomes; assay type: in vitro ADME; details: In-house data, read-out: CLint,HLM
[4] = design: method as in PMID 24195812; details: rats; oral dose of 0.024 mM/kg STA or SIA; cited from earlier work
[5] = ref supplement 1; cited from earlier work
CYP3A = details: rat liver microsomes, cited from earlier work
CYP3A5 [6] = molecular target: T2, CYP3A5 (Homo sapiens, UniProt P20815); test: Reversible inhibition (RI) assay on tacrolimus metabolism, CYP3A5*1/*3 HLM with CYP3cide
Experimental: (§3) The reactions were started with the addition of nicotinamide adenine dinucleotide phosphate (NADPH, 1 mM) and stopped 10 min later upon adding a double volume of ice-cold methanol. […] Reactions were terminated with the same method as the CYP3A4 group. All incubations were carried out in triplicate. […] Dixon plots were used to analyze the inhibitory type of RI assay and Ki value.

[7] = tissue to plasma partition coefficients; details: In-house data
Source text: All PBPK simulations were constructed using the population-based ADME(absorption, distribution, metabolism, and excretion) simulator (version 13.1.1, Simcyp® Ltd., Certara, Sheffield, UK).

CYP3A5 [8] = molecular target: T2, CYP3A5; test: Time-dependent inhibition (TDI) assay, testosterone-6β-hydroxylation, CYP3A5*1/*3 HLM with CYP3cide; assay type: biochemical
Experimental: as §1, §2

[9] = ref supplement 2; cited from earlier work
CYP3A4 [10] = molecular target: T1, CYP3A4; test: Reversible inhibition (RI) assay on tacrolimus metabolism, CYP3A5*3/*3 HLM
Experimental: as §3

[11] = 2 μM SIA, pre-incubation 10 min
[12] = 2 μM SIA, pre-incubation 20 min
[13] = 2 μM SIA, pre-incubation 30 min
[14] = 4 μM SIA, pre-incubation 10 min
[15] = 4 μM SIA, pre-incubation 20 min
[16] = 4 μM SIA, pre-incubation 30 min
[17] = 8 μM SIA, pre-incubation 10 min
[18] = 8 μM SIA, pre-incubation 20 min
[19] = 8 μM SIA, pre-incubation 30 min
[20] = 16 μM SIA, pre-incubation 0 min
[21] = 16 μM SIA, pre-incubation 5 min
[22] = 16 μM SIA, pre-incubation 10 min
[23] = 16 μM SIA, pre-incubation 20 min
[24] = 16 μM SIA, pre-incubation 30 min

T2 sequence (P20815 whole entry): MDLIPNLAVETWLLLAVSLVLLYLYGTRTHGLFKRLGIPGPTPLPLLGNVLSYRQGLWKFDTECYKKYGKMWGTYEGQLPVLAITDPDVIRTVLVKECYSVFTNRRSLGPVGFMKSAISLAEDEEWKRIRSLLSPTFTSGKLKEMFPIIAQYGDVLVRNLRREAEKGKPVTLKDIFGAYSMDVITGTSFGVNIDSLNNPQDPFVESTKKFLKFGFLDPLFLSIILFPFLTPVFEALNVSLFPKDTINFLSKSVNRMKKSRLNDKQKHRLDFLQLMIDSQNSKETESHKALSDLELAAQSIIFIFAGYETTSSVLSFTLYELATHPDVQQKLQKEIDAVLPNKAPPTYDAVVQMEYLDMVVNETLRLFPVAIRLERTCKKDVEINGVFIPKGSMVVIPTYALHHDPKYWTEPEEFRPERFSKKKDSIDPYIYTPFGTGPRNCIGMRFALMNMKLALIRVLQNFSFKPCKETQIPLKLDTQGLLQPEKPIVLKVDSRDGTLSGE
T1 sequence (P08684 whole entry): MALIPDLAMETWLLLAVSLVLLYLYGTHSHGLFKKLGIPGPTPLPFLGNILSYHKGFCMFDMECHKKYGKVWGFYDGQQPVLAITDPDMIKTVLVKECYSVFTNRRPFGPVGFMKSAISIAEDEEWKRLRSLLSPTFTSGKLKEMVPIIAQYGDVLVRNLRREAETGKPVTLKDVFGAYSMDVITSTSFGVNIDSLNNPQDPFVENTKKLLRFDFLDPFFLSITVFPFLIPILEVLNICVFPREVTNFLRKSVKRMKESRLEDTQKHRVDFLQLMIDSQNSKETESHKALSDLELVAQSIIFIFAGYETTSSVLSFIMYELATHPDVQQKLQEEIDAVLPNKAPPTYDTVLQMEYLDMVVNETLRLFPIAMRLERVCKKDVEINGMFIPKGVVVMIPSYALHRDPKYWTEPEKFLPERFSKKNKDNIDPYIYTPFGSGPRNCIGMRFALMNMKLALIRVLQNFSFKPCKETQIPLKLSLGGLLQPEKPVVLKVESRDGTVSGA

For `COc1cc2c(c(OC)c1OC)-c1c(cc(OC)c(OC)c1OC)C[C@H](C)[C@H](C)C2` [SIA, schisandrin A], the “TDI profile on CYP3A4 (in words)” value (CYP3A4 [1]) was “slight TDI”, the “log of percentage of control activity, Figure 4A, Mean” value (shortened to “log of percentage … Figure 4A, Mean”) (CYP3A4 [1]; 2 μM SIA, pre-incubation 0 min) was 4.6052 and the “log of percentage … Figure 4A, Mean” value (CYP3A4 [1]; 2 μM SIA, pre-incubation 5 min) was 4.5754. The “log of percentage … Figure 4A, Mean” value (CYP3A4 [1]; [11]) was 4.5165, the “log of percentage … Figure 4A, Mean” value (CYP3A4 [1]; [12]) was 4.4602 and the “log of percentage … Figure 4A, Mean” value (CYP3A4 [1]; [13]) was 4.3520. For the same molecule, the “log of percentage … Figure 4A, Mean” value (CYP3A4 [1]; 4 μM SIA, pre-incubation 0 min) was 4.6052, the “log of percentage … Figure 4A, Mean” value (CYP3A4 [1]; 4 μM SIA, pre-incubation 5 min) was 4.5505 and the “log of percentage … Figure 4A, Mean” value (CYP3A4 [1]; [14]) was 4.4420. For the same molecule, the “log of percentage … Figure 4A, Mean” value (CYP3A4 [1]; [15]) was 4.3925, the “log of percentage … Figure 4A, Mean” value (CYP3A4 [1]; [16]) was 4.2490 and the “log of percentage … Figure 4A, Mean” value (CYP3A4 [1]; 8 μM SIA, pre-incubation 0 min) was 4.6029. The “log of percentage … Figure 4A, Mean” value (CYP3A4 [1]; 8 μM SIA, pre-incubation 5 min) was 4.5164, the “log of percentage … Figure 4A, Mean” value (CYP3A4 [1]; [17]) was 4.3979 and the “log of percentage … Figure 4A, Mean” value (CYP3A4 [1]; [18]) was 4.2781. The “log of percentage … Figure 4A, Mean” value (CYP3A4 [1]; [19]) was 4.1876, the “log of percentage … Figure 4A, Mean” value (CYP3A4 [1]; [20]) was 4.6052 and the “log of percentage … Figure 4A, Mean” value (CYP3A4 [1]; [21]) was 4.4518. The “log of percentage … Figure 4A, Mean” value (CYP3A4 [1]; [22]) was 4.3776, the “log of percentage … Figure 4A, Mean” value (CYP3A4 [1]; [23]) was 4.2397 and the “log of percentage … Figure 4A, Mean” value (CYP3A4 [1]; [24]) was 4.0738. For the same molecule, the kinact/KI (CYP3A4 [1]; CYP3A4) was 125 M⁻¹ s⁻¹, the KI (CYP3A4 [1]; CYP3A4, testosterone-6β-hydroxylation) was 2.54 µM and the kinact (CYP3A4 [1]; human, CYP3A5*3/*3 human liver microsomes, probe testosterone (200 μM), CYP3A4, testosterone-6β-hydroxylation) was 0.000317 s⁻¹. The HBD [2] was 0, the PSA [2] was 55.38 Å2 and the microsomal CLint [3] was 130 µL/min/mg. The “increase of systemic exposure of tacrolimus” value [4] was 2.37 fold, the “Log Po:w” value [5] was 5.265 and the Ki (CYP3A; midazolam 1′-hydroxylation) was 5.83 µM. The Ki (CYP3A; midazolam 4-hydroxylation) was 4.8 µM, the Ki (CYP3A5 [6]) was 8.74 µM and the “Dixon plot data point, Figure 2D, Mean” value (CYP3A5 [6]; 2.4 μM SIA, 0.2 μM tacrolimus) was 32.0000. For the same molecule, the “Dixon plot data point, Figure 2D, Mean” value (CYP3A5 [6]; 2.4 μM SIA, 0.4 μM tacrolimus) was 17.6167, the “Dixon plot data point, Figure 2D, Mean” value (CYP3A5 [6]; 2.4 μM SIA, 0.8 μM tacrolimus) was 9.2000 and the “Dixon plot data point, Figure 2D, Mean” value (CYP3A5 [6]; 2.4 μM SIA, 1.6 μM tacrolimus) was 6.2790. The “Dixon plot data point, Figure 2D, Mean” value (CYP3A5 [6]; 7.2 μM SIA, 0.4 μM tacrolimus) was 21.6176, the “Dixon plot data point, Figure 2D, Mean” value (CYP3A5 [6]; 7.2 μM SIA, 1.6 μM tacrolimus) was 6.9243 and the “Dixon plot data point, Figure 2D, Mean” value (CYP3A5 [6]; 12 μM SIA, 0.2 μM tacrolimus) was 60.0000. The “Dixon plot data point, Figure 2D, Mean” value (CYP3A5 [6]; 12 μM SIA, 0.4 μM tacrolimus) was 30.1990, the “Dixon plot data point, Figure 2D, Mean” value (CYP3A5 [6]; 12 μM SIA, 0.8 μM tacrolimus) was 15.0500 and the “Dixon plot data point, Figure 2D, Mean” value (CYP3A5 [6]; 12 μM SIA, 1.6 μM tacrolimus) was 7.2381. The Kp ([7]; adipose, read-out: Kp Adipose) was 36.4, the Kp ([7]; brain, read-out: Kp Brain) was 7.4 and the Kp ([7]; gut, read-out: Kp Gut) was 210. The Kp ([7]; heart, read-out: Kp Heart) was 39.5, the Kp ([7]; kidney, read-out: Kp Kidney) was 5.9 and the Kp ([7]; liver, read-out: Kp Liver) was 3.9. The Kp ([7]; lung, read-out: Kp Lung) was 19, the Kp ([7]; spleen, read-out: Kp Spleen) was 7.6 and the “TDI profile on CYP3A5 (in words)” value (CYP3A5 [8]) was “slight TDI”. For the same molecule, the “log of percentage of control activity, Figure 4C, Mean” value (shortened to “log of percentage … Figure 4C, Mean”) (CYP3A5 [8]; 2 μM SIA, pre-incubation 0 min) was 4.6052, the “log of percentage … Figure 4C, Mean” value (CYP3A5 [8]; 2 μM SIA, pre-incubation 5 min) was 4.5539 and the “log of percentage … Figure 4C, Mean” value (CYP3A5 [8]; [11]) was 4.5218. For the same molecule, the “log of percentage … Figure 4C, Mean” value (CYP3A5 [8]; [12]) was 4.4427, the “log of percentage … Figure 4C, Mean” value (CYP3A5 [8]; [13]) was 4.3791 and the “log of percentage … Figure 4C, Mean” value (CYP3A5 [8]; 4 μM SIA, pre-incubation 0 min) was 4.6052. The “log of percentage … Figure 4C, Mean” value (CYP3A5 [8]; 4 μM SIA, pre-incubation 5 min) was 4.4998, the “log of percentage … Figure 4C, Mean” value (CYP3A5 [8]; [14]) was 4.5031 and the “log of percentage … Figure 4C, Mean” value (CYP3A5 [8]; [15]) was 4.4869. The “log of percentage … Figure 4C, Mean” value (CYP3A5 [8]; [16]) was 4.2859, the “log of percentage … Figure 4C, Mean” value (CYP3A5 [8]; 8 μM SIA, pre-incubation 0 min) was 4.6052 and the “log of percentage … Figure 4C, Mean” value (CYP3A5 [8]; 8 μM SIA, pre-incubation 5 min) was 4.4632. For the same molecule, the “log of percentage … Figure 4C, Mean” value (CYP3A5 [8]; [17]) was 4.4150, the “log of percentage … Figure 4C, Mean” value (CYP3A5 [8]; [18]) was 4.4028 and the “log of percentage … Figure 4C, Mean” value (CYP3A5 [8]; [19]) was 4.2282. For the same molecule, the “log of percentage … Figure 4C, Mean” value (CYP3A5 [8]; [20]) was 4.5539, the “log of percentage … Figure 4C, Mean” value (CYP3A5 [8]; [21]) was 4.4523 and the “log of percentage … Figure 4C, Mean” value (CYP3A5 [8]; [22]) was 4.3701. For the same molecule, the “log of percentage … Figure 4C, Mean” value (CYP3A5 [8]; [23]) was 4.2585, the “log of percentage … Figure 4C, Mean” value (CYP3A5 [8]; [24]) was 4.1607 and the kinact/KI (CYP3A5 [8]; CYP3A5) was 113 M⁻¹ s⁻¹. The KI (CYP3A5 [8]; CYP3A5, testosterone-6β-hydroxylation) was 2.07 µM, the kinact (CYP3A5 [8]; human, CYP3A5*1/*3 human liver microsomes with CYP3cide, probe testosterone (200 μM), with CYP3cide ([…]), CYP3A5, testosterone-6β-hydroxylation) was 0.000233 s⁻¹ and the fu plasma [9] was 0.0334. For the same molecule, the “Dixon plot data point, Figure 2C, Mean” value (CYP3A4 [10]; 2.4 μM SIA, 0.2 μM tacrolimus) was 20.0000, the “Dixon plot data point, Figure 2C, Mean” value (CYP3A4 [10]; 2.4 μM SIA, 0.4 μM tacrolimus) was 10.0000 and the “Dixon plot data point, Figure 2C, Mean” value (CYP3A4 [10]; 2.4 μM SIA, 0.8 μM tacrolimus) was 3.3452. The “Dixon plot data point, Figure 2C, Mean” value (CYP3A4 [10]; 2.4 μM SIA, 1.6 μM tacrolimus) was 1.4662, the “Dixon plot data point, Figure 2C, Mean” value (CYP3A4 [10]; 7.2 μM SIA, 0.4 μM tacrolimus) was 10.0565 and the “Dixon plot data point, Figure 2C, Mean” value (CYP3A4 [10]; 7.2 μM SIA, 1.6 μM tacrolimus) was 1.7598. For the same molecule, the “Dixon plot data point, Figure 2C, Mean” value (CYP3A4 [10]; 12 μM SIA, 0.2 μM tacrolimus) was 20.3445, the “Dixon plot data point, Figure 2C, Mean” value (CYP3A4 [10]; 12 μM SIA, 0.4 μM tacrolimus) was 9.8175 and the “Dixon plot data point, Figure 2C, Mean” value (CYP3A4 [10]; 12 μM SIA, 0.8 μM tacrolimus) was 4.5304. For the same molecule, the “Dixon plot data point, Figure 2C, Mean” value (CYP3A4 [10]; 12 μM SIA, 1.6 μM tacrolimus) was 1.6431 and the “reversible inhibition on CYP3A4 (in words)” value (CYP3A4 [10]; CYP3A5*3/*3 HLM, substrate tacrolimus) was “little reversible inhibition”.
